# Source: patent US9023813B2 (Nutek Pharma Ltd., priority 2012, dated 2015)
# Where “and” joins values, the source holds several entries; their conditions need not be identical. Equal values may be shown once. Entries after “also recorded” stand apart in the source; their conditions may differ.
# Tests used:
# male Sprague Dawley rats = assay: Clinical observations of rats during administration of propofol analogs in the pharmacokinetics study
# Method: (§1) Blood samples were to be taken pre-dose, during dose and post dose at designated intervals, with the blood quickly processed and stored at −70° C. until analysis.
# (§2) Formulations were prepared on the morning of the dosing day and each was passed through a 0.22 μm filter prior to being administered to animals. A standard dose of 0.168 mmol/Kg per analog was administered to each of the rats. […] Analog stability in the formulations was verified by preparing each formulation and harvesting 200 μL aliquots at 0, 1, 2 and 8 hr while standing at room temperature. After harvesting, each sample was immediately frozen in dry ice until analysis; concentrations of test compounds in the samples were examined by HPLC-UV.
# (§3) The animals were surgically prepared with indwelling cannula, double cannulation in carotid artery and jugular vein for i.v. infusion. The anesthetic pentobarbital was used during the surgery, and the animals were allowed to recover 3-5 days after surgery before the formulation was dosed. The dose formulation was administered intravenously via the jugular vein cannula. The 16.8 μmol/mL formulation was administered i.v. at a rate of 1 mL/Kg/min for 10 min.
# [1] = Solubility determination in D2O by 1H NMR with DSS internal standard; settings: for solubility: D2O, water, thermodynamic from solid
# Method: Thus the soapy-like solutions obtained were diluted until opalescent and diluted further until the opalescence visually disappeared.
# [2] = Pharmacokinetics: plasma concentrations of prodrug and propofol after intravenous infusion (LC/MS/MS); settings: for Mean concentration of prodrug and propofol in rat plasma after intravenous infusion administration / AUCinf / MRTinf / AUClast / CLp / Vdss / Cmax / Tmax / t1/2: analyte = administered compound; for Mean Concentration of Propofol in Rat Plasma After Intravenous Administration: analyte = propofol released from the administered compound; for Pro-drug behaviour (release of propofol in vivo): rats, releasing the propofol in a matter of minutes after infusion; for AUCinf / MRTinf: extrapolated to infinity; for AUClast: to last detected concentration; for CLp: total body clearance, dose/AUCinf; for Vdss: volume of distribution; for Cmax / Tmax / t1/2: rat plasma, IV infusion
# Method: as §1, §2, §3
# Approximately 0.20 mL blood was collected at each designated time point from carotid artery via a catheter. A total of 12 plasma samples were taken from each animal: 1 pre-dose; 2 during the dose (5 into the 10 min infusion and one just prior termination of the 10 min infusion) and 9 post-infusion at 2, 5, 15, 30 min and 1, 2, 3, 4, and 6 hr post-dose. All blood samples were transferred into plastic microcentrifuge tubes containing 5 μL of K2-EDTA (0.5M) as anti-coagulant and placed on ice until processed for plasma. Blood samples were processed for plasma by centrifugation at approximately 5° C. Plasma samples were then stored in 1.5 mL tubes, quick frozen over dry ice and kept at −70±10° C. until LC/MSMS analysis.
# For each, a minimum of 6 standard point curve runs in duplicates, and minimum of 5 standards were back calculated to within ±20% of their nominal concentrations. The LLOQ of each test article in plasma was established and 6 QC samples were included in assay runs of samples to ensure assay performance.
# Data Analysis. Plasma concentration versus time data was analyzed by non-compartmental approaches using the WinNonlin software program (version 5.2, Pharsight, Mountain View, Calif.) and the pharmacokinetic parameters T½, CL, Vss, AUC(0-t), AUC(0-inf), MRT, and graphs of plasma concentration versus time calculated for each.
# [3] = time post-10 min i.v. infusion, 0.168 mmol/Kg
# [4] = individual rats, post-10 min infusion, vehicle 10% Tween80
SMILES,Rats recovered at (male Sprague Dawley rats; [3]),Relative solubility [1],Mean concentration of prodrug and propofol in rat plasma after intravenous infusion administration ([2]; Time (h) 0),Mean concentration of prodrug and propofol in rat plasma after intravenous infusion administration ([2]; Time (h) 0.083),Mean concentration of prodrug and propofol in rat plasma after intravenous infusion administration ([2]; Time (h) 0.167),Mean concentration of prodrug and propofol in rat plasma after intravenous infusion administration ([2]; Time (h) 0.2),Mean concentration of prodrug and propofol in rat plasma after intravenous infusion administration ([2]; Time (h) 0.25),Mean concentration of prodrug and propofol in rat plasma after intravenous infusion administration ([2]; Time (h) 0.417),Mean concentration of prodrug and propofol in rat plasma after intravenous infusion administration ([2]; Time (h) 0.667),Mean concentration of prodrug and propofol in rat plasma after intravenous infusion administration ([2]; Time (h) 1.166),Mean concentration of prodrug and propofol in rat plasma after intravenous infusion administration ([2]; Time (h) 2.166),Mean concentration of prodrug and propofol in rat plasma after intravenous infusion administration ([2]; Time (h) 3.166),Mean concentration of prodrug and propofol in rat plasma after intravenous infusion administration ([2]; Time (h) 4.166),Mean concentration of prodrug and propofol in rat plasma after intravenous infusion administration ([2]; Time (h) 6.166),Mean Concentration of Propofol in Rat Plasma After Intravenous Administration ([2]; Time (h) 0),Pro-drug behaviour (release of propofol in vivo) [2],AUCinf [2] [µM·h],MRTinf [2] [min],AUClast [2] [µM·h],CLp [2] [mL/min/kg],other results
CC(C)c1cccc(C(C)C)c1OC(=O)OCCO[C@@H]1O[C@H](CO)[C@@H](O)[C@H](O)[C@H]1O [Compound 9],recovered at about 30 min,8.6,BQL,BQL,BQL,BQL,BQL,BQL,BQL,BQL,BQL,BQL,BQL,BQL,BQL,very efficient pro-drugs,,,,,
CC(C)c1cccc(C(C)C)c1OC(=O)OCCCO[C@@H]1O[C@H](CO)[C@@H](O)[C@H](O)[C@H]1O [Compound 12],recovered at about 30 min,5.0,BQL,0.00411 µM,0.00678 µM,BQL,BQL,BQL,BQL,BQL,BQL,BQL,BQL,BQL,BQL,very efficient pro-drugs,0.00122,6,0.000773,,Mean Concentration of Propofol in Rat Plasma After Intravenous Administration ([2]; Time (h) 4.166): BQL; Mean Concentration of Propofol in Rat Plasma After Intravenous Administration ([2]; Time (h) 6.166): BQL
CC(C)c1cccc(C(C)C)c1OC(=O)NCCO[C@@H]1O[C@H](CO)[C@@H](O)[C@H](O)[C@H]1O [Compound 17],,,BQL,178.796 µM,312.678 µM,152.206 µM,119.535 µM,35.206 µM,19.837 µM,8.012 µM,2.083 µM,0.3907 µM,0.0825 µM,0.0106 µM,BQL,,71.764,16.6,61.644,39.1,"Rat died at infusion of (male Sprague Dawley rats; Additional Rat 4, during infusion, vehicle 10% Tween80): infusion of 8 min.; Rat died at (male Sprague Dawley rats; Rat 3, post-10 min infusion, vehicle 10% Tween80): 1.5 h; Overall outcome in rats (male Sprague Dawley rats; in its vehicle (10% tween80 cosolvent)): poor results; Rat died at (male Sprague Dawley rats; [4]): died at 15 min. and 40 min; Rat recovered (from breathlessness) at (male Sprague Dawley rats; [4]): recovered at 10 min.; died at; Cause of death (male Sprague Dawley rats; individual rats, vehicle 10% Tween80): blood hemolysis; also recorded: hematuria; Water solubility (qualitative) ([1]; reason for cosolvent): poor; Vdss [2]: 0.657 L/kg; Mean Concentration of Propofol in Rat Plasma After Intravenous Administration ([2]; Time (h) 2.166): BQL; Mean Concentration of Propofol in Rat Plasma After Intravenous Administration ([2]; Time (h) 3.166): BQL; Mean Concentration of Propofol in Rat Plasma After Intravenous Administration ([2]; Time (h) 4.166): BQL; Mean Concentration of Propofol in Rat Plasma After Intravenous Administration ([2]; Time (h) 6.166): BQL"
CC(C)c1cccc(C(C)C)c1OC(=O)OCCO[C@@H]1O[C@H](CO)[C@@H](OC2O[C@H](CO)[C@@H](O)[C@H](O)[C@H]2O)[C@H](O)[C@H]1O (stereo partly drawn) [Compound 24],recovered at about 30 min,>20,BQL,3.2 µM,7.74 µM,1.029 µM,0.751 µM,0.036 µM,0.0112 µM,0.00301 µM,BQL,0.0042 µM,BQL,BQL,BQL,very efficient pro-drugs,0.791,12.4,0.786,5804,solubility [1]: > 20 mM; Cmax [2]: 8.1 µM; Tmax [2]: 8.4 min; t1/2 [2]: 53.2 min; Vdss [2]: 120 L/kg
CC(C)c1cccc(C(C)C)c1OC(=O)OCCCO[C@@H]1O[C@H](CO)[C@@H](OC2O[C@H](CO)[C@@H](O)[C@H](O)[C@H]2O)[C@H](O)[C@H]1O (stereo partly drawn) [Compound 25],recovered at about 35 min,>20,BQL,34.401 µM,68.36 µM,22.658 µM,9.074 µM,0.997 µM,0.0971 µM,0.0162 µM,0.00209 µM,BQL,BQL,BQL,BQL,very efficient pro-drugs,8.574,4.62,8.571,337,Rats soporous at (male Sprague Dawley rats; [3]): Rats soporous at about 7 min and; solubility [1]: > 20 mM; Cmax [2]: 68.4 µM; Tmax [2]: 10.2 min; t1/2 [2]: 15.2 min; Vdss [2]: 1.51 L/kg
